Assay results: patent US8063098B2, “GlyT1 receptor antagonists” (Hoffmann-La Roche Inc., priority 2008, dated 2011)

Target: T1, mGlyT-1b (Mus musculus, UniProt P28571)
T1 construct: host or cells: Flp-in-CHO
T1 sequence (P28571 1-651 isoform P28571-2): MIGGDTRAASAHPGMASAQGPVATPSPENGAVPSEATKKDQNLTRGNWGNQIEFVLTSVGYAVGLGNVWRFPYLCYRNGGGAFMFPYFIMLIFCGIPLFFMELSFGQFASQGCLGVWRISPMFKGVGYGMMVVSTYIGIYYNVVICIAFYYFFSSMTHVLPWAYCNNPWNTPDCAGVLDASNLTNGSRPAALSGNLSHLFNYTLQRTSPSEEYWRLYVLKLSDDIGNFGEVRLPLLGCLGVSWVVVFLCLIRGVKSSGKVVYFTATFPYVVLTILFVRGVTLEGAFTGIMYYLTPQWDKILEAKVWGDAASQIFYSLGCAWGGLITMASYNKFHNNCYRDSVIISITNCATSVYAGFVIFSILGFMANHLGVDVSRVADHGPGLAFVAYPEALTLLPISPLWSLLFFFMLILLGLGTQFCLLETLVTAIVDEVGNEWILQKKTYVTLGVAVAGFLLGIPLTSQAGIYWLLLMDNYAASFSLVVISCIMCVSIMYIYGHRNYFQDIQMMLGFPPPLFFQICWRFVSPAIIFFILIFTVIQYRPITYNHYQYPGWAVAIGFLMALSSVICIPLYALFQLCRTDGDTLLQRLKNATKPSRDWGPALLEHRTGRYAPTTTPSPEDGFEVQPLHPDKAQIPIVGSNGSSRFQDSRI
Experiment: Glycine uptake inhibition assay (mGlyT-1b), [3H]-glycine uptake in Flp-in-CHO cells
Type: cell-based
Conditions: Flp-in-CHO cells stably transfected with mGlyT1b cDNA, 20 min at 22° C. preincubation
Method: Nutrient mixture F-12 (Gibco Life-technologies), fetal bovine serum (FBS) 5%, (Gibco life technologies), Penicillin/Streptomycin 1% (Gibco life technologies), Hygromycin 0.6 mg/ml (Gibco life technologies), Glutamine 1 mM Gibco life technologies) • Uptake buffer (UB): 150 mM NaCl, 10 mM Hepes-Tris, pH 7.4, […], 2.5 mM KCl, 2.5 mM MgSO4, 10 mM (+) D-glucose. • Flp-in™-CHO (Invitrogen Cat n° R758-07) cells stably transfected with mGlyT1b cDNA. Glycine Uptake Inhibition Assay (mGlyT-1b)
On day 1 mammalian cells, (Flp-in™-CHO), transfected with mGlyT-1b cDNA, were plated at the density of 40,000 cells/well in complete F-12 medium, without hygromycin in 96-well culture plates. On day 2, the medium was aspirated and the cells were washed twice with uptake buffer (UB). The cells were then incubated for 20 min at 22° C. with either (i) no potential competitor, (ii) 10 mM non-radioactive glycine, (iii) a concentration of a potential inhibitor. A range of concentrations of the potential inhibitor was used to generate data for calculating the concentration of inhibitor resulting in 50% of the effect (e.g. IC50, the concentration of the competitor inhibiting glycine uptake of 50%). A solution was then immediately added containing [^3H]-glycine 60 nM (11-16 Ci/mmol) and 25 μM non-radioactive glycine. The plates were incubated with gentle shaking and the reaction was stopped by aspiration of the mixture and washing (three times) with ice-cold UB. The cells were lysed with scintillation liquid, shaken 3 hours and the radioactivity in the cells was counted using a scintillation counter.

Row | Compound | IC50 [µM]
1 | COc1cc(F)cc(SC)c1C(=O)NC(c1ccccc1)C1(N2CCCC2)CCC1 (centres unmarked) [Example 11, 4-Fluoro-2-Methoxy-6-methylsulfanyl-N-[phenyl-(1-pyrrolidin-1-yl-cyclobutyl)-methyl]-benzamide] | 0.0122
2 | COc1cc(C(F)(F)F)cc(SC)c1C(=O)NC(c1ccccc1)C1(N2CCSCC2)CCC1 (centres unmarked) [Example 66, 2-Methoxy-6-methylsulfanyl-N-[phenyl-(1-thiomorpholin-4-yl-cyclobutyl)-methyl]-4-trifluoromethyl-benzamide] | 0.0915
3 | COc1cc(C(F)(F)F)cc(SC)c1C(=O)NC(c1ccccc1)C1(N2CCOCC2)CCC1 (centres unmarked) [Example 60, 2-Methoxy-6-methylsulfanyl-N-[(1-morpholin-4-yl-cyclobutyl)-phenyl-methyl]-4-trifluoromethyl-benzamide] | 0.0496
4 | O=C(NC(c1ccccc1)C1(N2CCCC2)CCC1)c1ccccc1C(F)(F)F (centres unmarked) [Example 44, N-[Phenyl-(1-pyrrolidin-1-yl-cyclobutyl)-methyl]-2-trifluoromethyl-benzamide] | 0.0951
5 | CSc1cc(C(F)(F)F)cc(O)c1C(=O)NC(c1ccccc1)C1(N2CCCC2)CCC1 (centres unmarked) [Example 69, 2-Hydroxy-6-methylsulfanyl-N-[phenyl-(1-pyrrolidin-1-yl-cyclobutyl)-methyl]-4-trifluoromethyl-benzamide] | 0.0095
6 | COc1cc(C(F)(F)F)cc(SC)c1C(=O)NC(c1ccccc1)C1(N2CCN(C3CC3)CC2)CCC1 (centres unmarked) [Example 73, N-{[1-(4-Cyclopropyl-piperazin-1-yl)-cyclobutyl]-phenyl-methyl}-2-methoxy-6-methylsulfanyl-4-trifluoromethyl-benzamide] | 0.0308
7 | O=C(NC(c1ccccc1)C1(N2CCCC2)CCC1)c1ccc(C(F)(F)F)cc1C(F)(F)F (centres unmarked) [Example 15, N-[Phenyl-(1-pyrrolidin-1-yl-cyclobutyl)-methyl]-2,4-bis-trifluoromethyl-benzamide] | 0.0312
8 | COc1cc(C(F)(F)F)cc(SC)c1C(=O)NC(c1ccccc1)C1(N2CC3(COC3)C2)CCC1 (centres unmarked) [Example 75, 2-Methoxy-6-methylsulfanyl-N-{[1-(2-oxa-6-aza-spiro[3.3]hept-6-yl)-cyclobutyl]-phenyl-methyl}-4-trifluoromethyl-benzamide] | 0.0261
9 | COc1cc(C(F)(F)F)cc(SC)c1C(=O)NC(c1ccccc1)C1(N(C)C)CCC1 (centres unmarked) [Example 51, N-[(1-Dimethylamino-cyclobutyl)-phenyl-methyl]-2-methoxy-6-methylsulfanyl-4-trifluoromethyl-benzamide] | 0.0142
10 | CSc1cc(C(F)(F)F)ccc1C(=O)NC(c1ccccc1)C1(N2CCCC2)CCC1 (single isomer, unassigned; (+)) [Example 35, (+)-2-Methylsulfanyl-N-[phenyl-(1-pyrrolidin-1-yl-cyclobutyl)-methyl]-4-trifluoromethyl-benzamide] | 0.0098
11 | CSc1cc(C(F)(F)F)cc(C(F)(F)F)c1C(=O)NC(c1ccccc1)C1(N2CCCC2)CC1 (centres unmarked) [Example 6, 2-Methylsulfanyl-N-[phenyl-(1-pyrrolidin-1-yl-cyclopropyl)-methyl]-4,6-bis-trifluoromethyl-benzamide] | 0.0683
12 | O=C(NC(c1ccccc1)C1(N2CCCC2)CCC1)c1ccc(C(F)(F)F)cc1Br (centres unmarked) [Example 52, 2-Bromo-N-[phenyl-(1-pyrrolidin-1-yl-cyclobutyl)-methyl]-4-trifluoromethyl-benzamide] | 0.0127
13 | CSc1cc(C(F)(F)F)cc(C(F)(F)F)c1C(=O)NC(c1ccccc1)C1(N2CCCC2)CC1 (single isomer, unassigned; (-)) [Example 29, (−)-2-Methylsulfanyl-N-[phenyl-(1-pyrrolidin-1-yl-cyclopropyl)-methyl]-4,6-bis-trifluoromethyl-benzamide] | 0.0509
14 | COc1cc(C(F)(F)F)cc(SC)c1C(=O)NC(c1ccccc1)C1(N2C3CCC2COC3)CCC1 (racemic) [Example 71, (rac)-2-Methoxy-6-methylsulfanyl-N-{[1-(3-oxa-8-aza-bicyclo[3.2.1]oct-8-yl)-cyclobutyl]-phenyl-methyl}-4-trifluoromethyl-benzamide] | 0.0521
15 | COc1cc(C(F)(F)F)cc(SC)c1C(=O)NC(c1cccc(F)c1)C1(N2CCCC2)CCC1 (centres unmarked) [Example 56, N-[(3-Fluoro-phenyl)-(1-pyrrolidin-1-yl-cyclobutyl)-methyl]-2-methoxy-6-methylsulfanyl-4-trifluoromethyl-benzamide] | 0.0135
16 | CSc1cc(C(F)(F)F)cc(C(F)(F)F)c1C(=O)NC(c1ccccc1)C1(N2CCCC2)CCC1 (single isomer, unassigned; (+)) [Example 30, (+)-2-Methylsulfanyl-N-[phenyl-(1-pyrrolidin-1-yl-cyclobutyl)-methyl]-4,6-bis-trifluoromethyl-benzamide] | 0.047
17 | CSc1cc(C(F)(F)F)ccc1C(=O)NC(c1ccccc1)C1(N2CCN(C3CC3)CC2)CCC1 (centres unmarked) [Example 72, N-{[1-(4-Cyclopropyl-piperazin-1-yl)-cyclobutyl]-phenyl-methyl}-2-methylsulfanyl-4-trifluoromethyl-benzamide] | 0.0494
